Reference: patent US20250171438A1 (Agios Pharmaceuticals, Inc., priority 2022, published 2025)

Biological target: T1, human PAH with the R408W mutation (Homo sapiens, UniProt P00439, R408W)
T1 construct: expressed in transfected cells
T1 sequence (P00439 1-452 R408W): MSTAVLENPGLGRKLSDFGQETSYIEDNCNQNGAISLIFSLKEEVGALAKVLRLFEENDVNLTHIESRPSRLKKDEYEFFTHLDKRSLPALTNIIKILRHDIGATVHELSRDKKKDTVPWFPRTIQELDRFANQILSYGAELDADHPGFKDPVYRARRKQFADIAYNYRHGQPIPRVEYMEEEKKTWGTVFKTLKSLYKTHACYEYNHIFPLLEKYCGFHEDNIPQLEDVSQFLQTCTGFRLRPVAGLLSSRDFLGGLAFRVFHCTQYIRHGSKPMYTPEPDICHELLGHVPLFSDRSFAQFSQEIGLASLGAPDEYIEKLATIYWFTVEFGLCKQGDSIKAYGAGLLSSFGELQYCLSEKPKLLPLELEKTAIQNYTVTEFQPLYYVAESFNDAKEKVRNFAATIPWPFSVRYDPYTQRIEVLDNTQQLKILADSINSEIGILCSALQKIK
Experiment: Cell Based Phenylalanine Flux Assay
Details: A375 cells expressing human R408W PAH; 24 hrs with compound; 13C-Tyrosine by LC-MS; average where tested multiple times; read-out: AC50

AC50 | SMILES
> 5 µM | Cc1nc(C2CCN2)oc1C(=O)N1CCc2[nH]cnc2C1c1nc2c(F)cccc2s1 (stereo not shown)
1 to 5 µM | Cn1nnc(C(=O)N2CCc3[nH]cnc3C2c2nc3ccccc3s2)n1 (stereo not shown)
1 to 5 µM | Cn1nc(C(F)F)nc1C(=O)N1CCc2[nH]cnc2C1c1nc2c(F)cccc2s1 (stereo not shown)
1 to 5 µM | Cn1nc(Br)nc1C(=O)N1CCc2[nH]cnc2C1c1nc2c(F)cccc2s1 (stereo not shown)
1 to 5 µM | Cn1nc(C2CC2)nc1C(=O)N1CCc2[nH]cnc2C1c1nc2ccccc2s1 (stereo not shown)
1 to 5 µM | Cn1nc(C2CC2)nc1C(=O)N1CCc2[nH]cnc2C1c1nc2c(F)cccc2s1 (stereo not shown)
1 to 5 µM | Cn1nc(C2CC2)cc1C(=O)N1CCc2[nH]cnc2C1c1nc2c(F)cccc2s1 (stereo not shown)
1 to 5 µM | CC(C)(O)c1noc(C(=O)N2CCc3[nH]cnc3C2c2nc3ccccc3s2)n1 (stereo not shown)
1 to 5 µM | CC(C)(O)c1cc(C(=O)N2CCc3[nH]cnc3C2c2nc3ccccc3s2)on1 (stereo not shown)
1 to 5 µM | Cn1nc(C(C)(C)O)nc1C(=O)N1CCc2[nH]cnc2C1c1nc2ccccc2s1 (stereo not shown)
1 to 5 µM | Cn1nc(CC#N)nc1C(=O)N1CCc2[nH]cnc2C1c1nc2c(F)cccc2s1 (stereo not shown)
1 to 5 µM | CC(C)(O)c1noc(C(=O)N2CCc3[nH]cnc3C2c2nc3c(F)cccc3s2)n1 (stereo not shown)
1 to 5 µM | CC(C)(O)c1cc(C(=O)N2CCc3[nH]cnc3C2c2nc3c(F)cccc3s2)sn1 (stereo not shown)
> 5 µM | Cn1nc(C(C)(C)O)nc1C(=O)N1CCc2[nH]cnc2C1c1nc2c(F)cccc2s1 (stereo not shown)
1 to 5 µM | CC(C)(O)c1nsc(C(=O)N2CCc3[nH]cnc3C2c2nc3c(F)cccc3s2)n1 (stereo not shown)
1 to 5 µM | Cc1nnc(C(=O)N2CCc3[nH]cnc3C2c2nc3c(F)cccc3s2)n1C (stereo not shown)
1 to 5 µM | Cn1ncc(C(=O)N2CCc3[nH]cnc3C2c2nc3c(C(F)(F)F)cccc3s2)c1C(F)F (stereo not shown)
1 to 5 µM | Cn1ncc(C(=O)N2CCc3[nH]cnc3C2c2nc3c(F)cccc3s2)c1Br (stereo not shown)
1 to 5 µM | Cn1ncc(C(=O)N2CCc3[nH]cnc3C2c2nc3c(C(F)(F)F)cccc3s2)c1Cl (stereo not shown)
1 to 5 µM | Cc1cccc2sc(C3c4nc[nH]c4CCN3C(=O)c3cnn(C)c3Cl)nc12 (stereo not shown)
1 to 5 µM | NC(=O)Cn1ncc(C(=O)N2CCc3[nH]cnc3C2c2nc3c(F)cccc3s2)c1C(F)F (stereo not shown)
1 to 5 µM | O=C(c1cnn(CCO)c1Cl)N1CCc2[nH]cnc2C1c1nc2c(F)cccc2s1 (stereo not shown)
> 5 µM | CNC(=O)N1CC(C(=O)N2CCc3[nH]cnc3C2c2nc3ccccc3s2)C1 (stereo not shown)

AC50 | SMILES
> 5 µM | Cn1cnc(C(=O)N2CCc3[nH]cnc3C2c2nc3c(F)cccc3s2)n1 (stereo not shown)
1 to 5 µM | Cn1ncnc1C(=O)N1CCc2[nH]cnc2C1c1nc2c(F)cccc2s1 (stereo not shown)
1 to 5 µM | Cn1ccc(C(=O)N2CCc3[nH]cnc3C2c2nc3c(F)cccc3s2)n1 (stereo not shown)
1 to 5 µM | O=C(c1cn[nH]c1)N1CCc2nc[nH]c2C1c1nc2c(F)cccc2s1 (stereo not shown)
1 to 5 µM | O=C(c1ccn[nH]1)N1CCc2[nH]cnc2C1c1nc2c(F)cccc2s1 (stereo not shown)
1 to 5 µM | Cc1nc(C(C)(C)S(C)(=O)=O)oc1C(=O)N1CCc2[nH]cnc2C1c1nc2c(F)cccc2s1 (stereo not shown)
1 to 5 µM | Cn1nnc(C(=O)N2CCc3[nH]cnc3C2c2nc3c(F)cccc3s2)n1 (stereo not shown)
1 to 5 µM | Cc1nc(N2CCN(C)CC2)oc1C(=O)N1CCc2[nH]cnc2C1c1nc2c(F)cccc2s1 (stereo not shown)
1 to 5 µM | Cc1nc(N2CCOCC2)oc1C(=O)N1CCc2[nH]cnc2C1c1nc2c(F)cccc2s1 (stereo not shown)
1 to 5 µM | Cn1nc(N)cc1C(=O)N1CCc2[nH]cnc2C1c1nc2ccccc2s1 (stereo not shown)
1 to 5 µM | CNC(C)(C)c1nc(C)c(C(=O)N2CCc3[nH]cnc3C2c2nc3c(F)cccc3s2)o1 (stereo not shown)
> 5 µM | O=C(c1cc(CO)n[nH]1)N1CCc2[nH]cnc2C1c1nc2c(F)cccc2s1 (stereo not shown)
> 5 µM | Cc1nc(-c2ccccn2)oc1C(=O)N1CC(C)c2[nH]cnc2C1c1nc2ccccc2s1 (stereo not shown) [listing 1 of 3 here]
> 5 µM | CC1CN(C(=O)c2cnco2)C(c2nc3c(F)cccc3s2)c2nc[nH]c21 (stereo not shown) [listing 1 of 4 here]
> 5 µM | CC1CN(C(=O)c2cnn3cc(CN(C)C)ccc23)C(c2nc3ccccc3s2)c2nc[nH]c21 (stereo not shown) [listing 1 of 3 here]
> 5 µM | CC1CN(C(=O)c2cnco2)C(c2nc3c(F)cccc3s2)c2nc[nH]c21 (stereo not shown) [listing 2 of 4 here]
1 to 5 µM | Cc1nc(-c2ccccn2)oc1C(=O)N1CC(C)c2[nH]cnc2C1c1nc2ccccc2s1 (stereo not shown) [listing 2 of 3 here]
1 to 5 µM | CC1CN(C(=O)c2cnco2)C(c2nc3c(F)cccc3s2)c2nc[nH]c21 (stereo not shown) [listing 3 of 4 here]
1 to 5 µM | CC1CN(C(=O)c2cnn3cc(CN(C)C)ccc23)C(c2nc3ccccc3s2)c2nc[nH]c21 (stereo not shown) [listing 2 of 3 here]
1 to 5 µM | Cc1nnc(C(=O)N2CC(C)c3[nH]cnc3C2c2nc3ccccc3s2)o1 (stereo not shown)
1 to 5 µM | Cc1nc(-c2ccccn2)oc1C(=O)N1CC(C)c2[nH]cnc2C1c1nc2ccccc2s1 (stereo not shown) [listing 3 of 3 here]
> 5 µM | CC1CN(C(=O)c2cnco2)C(c2nc3c(F)cccc3s2)c2nc[nH]c21 (stereo not shown) [listing 4 of 4 here]
> 5 µM | CC1CN(C(=O)c2cnn3cc(CN(C)C)ccc23)C(c2nc3ccccc3s2)c2nc[nH]c21 (stereo not shown) [listing 3 of 3 here]
